The text below walks through data of ChEMBL document CHEMBL3217732, “Inhibition of Pseudomonas aeruginosa biofilms with a glycopeptide dendrimer containing D-amino acids” (Medchemcomm, 2011).

Data set [1] has as its system Pseudomonas aeruginosa. As to the kind of experiment: Ratio of L-fucose IC50 to compound IC50 for Pseudomonas aeruginosa lectin LecB after 1 hr by enzyme-linked lectin assay.
In data set [2] the test system is Pseudomonas aeruginosa. As to the kind of experiment: Inhibition of Pseudomonas aeruginosa clinical isolate A014 biofilm formation at 0.05 mM after 24 hrs using acridine orange staining by steel coupon assay. The format is functional, organism-based.
Data set [3] is described as follows: Binding affinity to Pseudomonas aeruginosa lectin LecB after 1 hr by enzyme-linked lectin assay.
Data set [4] can be described thus: Stability of the compound in 100 mM of tris buffer at pH 7.5 after 48 hrs in presence of trypsin. Conditions: isolated protein, pH 7.5, 48 h. The format is ADME.
Data set [5] has as its system Pseudomonas aeruginosa. As to the kind of experiment: Inhibition of Pseudomonas aeruginosa clinical isolate A021 biofilm formation at 0.05 mM after 24 hrs using acridine orange staining by steel coupon assay. The format is functional, organism-based.
Data set [6] in a line: Stability of the compound in 100 mM of tris buffer at pH 7.5 after 48 hrs in presence of chymotrypsin. The following applies: isolated protein, pH 7.5, 48 h. The format is ADME.
The next data set concerns Serum. Briefly: Metabolic stability in human serum. The format is ADME, cell-free.
The test system of data set [7] is Pseudomonas aeruginosa. As to the kind of experiment: Inhibition of wild type Pseudomonas aeruginosa PAO1 biofilm formation at 0.05 mM after 24 hrs using acridine orange staining by steel coupon assay. The format is functional, organism-based.
Data set [8] relates to Pseudomonas aeruginosa. As to the kind of experiment: Inhibition of Pseudomonas aeruginosa clinical isolate A035 biofilm formation at 0.05 mM after 24 hrs using acridine orange staining by steel coupon assay. The format is functional, organism-based.
Data set [9] deals with Pseudomonas aeruginosa. As to the kind of experiment: Ratio of FD2 IC50 to compound IC50 for Pseudomonas aeruginosa lectin LecB after 1 hr by enzyme-linked lectin assay.
Data set [10] in a line: Half life in human serum. The format is ADME, cell-free.
Data set [11] can be described thus: Stability of the compound in 100 mM of tris buffer at pH 7.5 after 30 mins in presence of chymotrypsin. The format is ADME. The following applies: isolated protein, pH 7.5, 0.5 h.
The nature of data set [12]: Stability of the compound in 100 mM of tris buffer at pH 7.5 after 30 mins in presence of trypsin. The format is ADME. The following applies: isolated protein, pH 7.5, 0.5 h.

Activity calls are given as the source filed them. The calls are words filed in the database; no cut-off is given here. Where a SMILES comes first, the peptide text is derived from it. Bridges are numbered along the chain shown (N, C = ends). Roman numbers before positions name the chains, in order. Side-chain parts run from the residue outwards. The star is where a group is joined. Acetyl(C-α-L-Fucp) = C[C@@H]1O[C@@H](CC(=O)*)[C@@H](O)[C@H](O)[C@@H]1O

What is called IC50 is the concentration at which inhibition is half-maximal. The low end stands for inhibition by little substance, the high end for a need for much substance. The term half-life denotes the time in which the quantity being followed falls by half.

Turning to `CC(C)C[C@@H](NC(=O)[C@@H](Cc1cnc[nH]1)NC(=O)[C@@H](CCCCNC(=O)[C@@H](CC(C)C)NC(=O)[C@@H](CCCCN)NC(=O)[C@@H](Cc1ccccc1)NC(=O)[C@@H](CCCCNC(=O)[C@@H](CC(C)C)NC(=O)[C@H]1CCCN1C(=O)[C@@H](CCCCN)NC(=O)C[C@@H]1O[C@@H](C)[C@@H](O)[C@@H](O)[C@@H]1O)NC(=O)[C@@H](CC(C)C)NC(=O)[C@H]1CCCN1C(=O)[C@@H](CCCCN)NC(=O)C[C@@H]1O[C@@H](C)[C@@H](O)[C@@H](O)[C@@H]1O)NC(=O)[C@@H](CC(C)C)NC(=O)[C@@H](CCCCN)NC(=O)[C@@H](Cc1ccccc1)NC(=O)[C@@H](CCCCNC(=O)[C@@H](CC(C)C)NC(=O)[C@H]1CCCN1C(=O)[C@@H](CCCCN)NC(=O)C[C@@H]1O[C@@H](C)[C@@H](O)[C@@H](O)[C@@H]1O)NC(=O)[C@@H](CC(C)C)NC(=O)[C@H]1CCCN1C(=O)[C@@H](CCCCN)NC(=O)C[C@@H]1O[C@@H](C)[C@@H](O)[C@@H](O)[C@@H]1O)C(N)=O`, the Ratio IC50 is 16.7 in the data set on Pseudomonas aeruginosa [1] and 4.7 in the data set with Pseudomonas aeruginosa [9]. Moreover, the inhibition result in the data set on Pseudomonas aeruginosa [2], in the data set with Pseudomonas aeruginosa [5], in the data set with Pseudomonas aeruginosa [7] and in the data set with Pseudomonas aeruginosa [8] was “Active” in each case. In [3], this molecule yielded an IC50 of 660 nM. In addition, the Stability result (in [4]; in data set [6]; with Serum) was “Stable” in each case.

On to `CC(C)C[C@H](NC(=O)[C@H](Cc1cnc[nH]1)NC(=O)[C@H](CCCCNC(=O)[C@H](CC(C)C)NC(=O)[C@H](CCCCN)NC(=O)[C@H](Cc1ccccc1)NC(=O)[C@H](CCCCNC(=O)[C@H](CC(C)C)NC(=O)[C@@H]1CCCN1C(=O)[C@H](CCCCN)NC(=O)C[C@@H]1O[C@@H](C)[C@@H](O)[C@@H](O)[C@@H]1O)NC(=O)[C@H](CC(C)C)NC(=O)[C@@H]1CCCN1C(=O)[C@H](CCCCN)NC(=O)C[C@@H]1O[C@@H](C)[C@@H](O)[C@@H](O)[C@@H]1O)NC(=O)[C@H](CC(C)C)NC(=O)[C@H](CCCCN)NC(=O)[C@H](Cc1ccccc1)NC(=O)[C@H](CCCCNC(=O)[C@H](CC(C)C)NC(=O)[C@@H]1CCCN1C(=O)[C@H](CCCCN)NC(=O)C[C@@H]1O[C@@H](C)[C@@H](O)[C@@H](O)[C@@H]1O)NC(=O)[C@H](CC(C)C)NC(=O)[C@@H]1CCCN1C(=O)[C@H](CCCCN)NC(=O)C[C@@H]1O[C@@H](C)[C@@H](O)[C@@H](O)[C@@H]1O)C(N)=O`, for which, in the data set on Pseudomonas aeruginosa [1], the Ratio IC50 was 73.3. In addition, the IC50 in [3] worked out at 150 nM.

Consider `C[C@H](O)[C@@H](O)[C@@H](O)[C@H](O)C=O` [L-FUCOSE], for which the Ratio IC50 with Pseudomonas aeruginosa [1] stood at 1. Besides, the IC50 in [3] amounted to 11000 nM.

`CC[C@H](C)[C@H](NC(=O)[C@H](Cc1cnc[nH]1)NC(=O)[C@H](CCCCNC(=O)[C@@H](NC(=O)[C@H](CCCCN)NC(=O)[C@H](Cc1ccccc1)NC(=O)[C@H](CCCCNC(=O)[C@H](CC(C)C)NC(=O)[C@@H]1CCCN1C(=O)[C@H](CCCCN)NC(=O)C[C@@H]1O[C@@H](C)[C@@H](O)[C@@H](O)[C@@H]1O)NC(=O)[C@H](CC(C)C)NC(=O)[C@@H]1CCCN1C(=O)[C@H](CCCCN)NC(=O)C[C@@H]1O[C@@H](C)[C@@H](O)[C@@H](O)[C@@H]1O)[C@@H](C)CC)NC(=O)[C@@H](NC(=O)[C@H](CCCCN)NC(=O)[C@H](Cc1ccccc1)NC(=O)[C@H](CCCCNC(=O)[C@H](CC(C)C)NC(=O)[C@@H]1CCCN1C(=O)[C@H](CCCCN)NC(=O)C[C@@H]1O[C@@H](C)[C@@H](O)[C@@H](O)[C@@H]1O)NC(=O)[C@H](CC(C)C)NC(=O)[C@@H]1CCCN1C(=O)[C@H](CCCCN)NC(=O)C[C@@H]1O[C@@H](C)[C@@H](O)[C@@H](O)[C@@H]1O)[C@@H](C)CC)C(N)=O` (I: {Acetyl(C-α-L-Fucp)}-KPLK([Leu-Pro-Lys-Acetyl(C-α-L-Fucp)])FKIKHI-NH2 / II: {Acetyl(C-α-L-Fucp)}-KPLK([Leu-Pro-Lys-Acetyl(C-α-L-Fucp)])FKI; amide I:8-II:C) gave a half-life in data set [10] of 60 h. In addition, the Ratio IC50 in the data set with Pseudomonas aeruginosa [1] was 78.6. The Stability entry in data set [11] and in data set [12] was “Unstable” throughout. This molecule also registered an IC50 in data set [3] of 140 nM.
